One data set concerns HEK 293 cells. As to the kind of experiment: toxicity in HEK 293 cells. The conditions noted are these: 100 μM. It is filed as cell-based.
In a further data set the test system is synovial fibroblasts. In words: toxicity in synovial fibroblasts. It is filed as cell-based. The conditions noted are these: 100 μM.
The conditions of data set [1]: in vivo, 0.05 mg/kg.
In data set [2] the test system is hMSCs. As to the kind of experiment: type II collagen expression in hMSC cultures (18 day assay). It is filed as cell-based, human. On the procedure:
The chondrogenic differentiation event was initiated quickly even though a fully differentiated chondrocyte phenotype cannot be assessed prior to 14 days in culture. In an 18 day assay, compound treatment was only required for the first 48 hrs and followed by removal and replacement of the media (in the absence of stimuli, FIG. 2B). The promotion of chondrogenic differentiation was not altered or enhanced upon longer treatment with the stimuli (data not shown).
Primary hMSCs were plated (10,000/well) in 384-well plates and cultured for 18 days. The cells were fixed with 4% formalin, permeabilized with triton (0.5%), digested with 0.5 mg/ml collagenase II to unwind the collagen fibrils, and then immunostained with an antibody recognizing type II collagen. DAPI (2 μg/ml) was added to visualize the nuclei. The chondrogenic nodules stained positive for type II collagen but lacked expression of type X collagen and osteocalcin, markers for chondrocyte hypertrophy and osteoblasts, respectively (not shown). 10,000 hMSCs (passages 3-5) were plated in Greiner 384-well low-bottom plates on day 1. The cells were allowed to adhere and stimulated for 48 hrs (days 2-3) with the indicated stimuli in MSC growth media (Millipore). The media was then removed and replaced with serum-free DMEM for an additional 16 days. This media was replenished on days 10 and 15 of the assay. Primary bovine chondrocytes were isolated from the articular surfaces from mature knees. After one week of culture, 8,500 cells were trypsinized and plated in Greiner 384-well white clear-bottom plates in growth media. […] 20 μl of the supernatant was mixed with 20 μl of the Greiss reagent and quantitated at 540 nm as described by the Promega kit instructions. Bovine cartilage explants (cut in circular explants in a 96 well plate) were cultured in the presence of 20 ng/ml TNFα and 10 ng/ml oncostatin M to induce GAG release for 72 hours (FIG. 2D). PRO1 was added at the indicated concentrations during the entire 72 hrs. […] Parafin sections were hydrated, incubated in low pH Antigen unmasking solution (Vector) at 90 C for 10 minutes, permeabilized with 0.1% collagenase II (only for the sections stained with type II collagen) for 10 minutes, blocked with CAS block for 10 minutes and then incubated with the primary antibody (type II collagen, aggrecan or Timp1) antibody (Abcam) overnight at 4 C. The antigens were visualized through standard ABC detection methods and developed with DAB. Representative of 3 sections stained/treatment group (independent experiments).

Data set [3] deals with hMSCs. In words: toxicity in hMSCs. In kind it is cell-based, human. The conditions noted are these: 100 μM.
For the next data set, the target named is T1, FLNA (Homo sapiens, UniProt P21333).
T1 construct: endogenous in cells; host or cells: hMSCs (primary human mesenchymal stem cells)
T1 sequence (P21333 whole entry): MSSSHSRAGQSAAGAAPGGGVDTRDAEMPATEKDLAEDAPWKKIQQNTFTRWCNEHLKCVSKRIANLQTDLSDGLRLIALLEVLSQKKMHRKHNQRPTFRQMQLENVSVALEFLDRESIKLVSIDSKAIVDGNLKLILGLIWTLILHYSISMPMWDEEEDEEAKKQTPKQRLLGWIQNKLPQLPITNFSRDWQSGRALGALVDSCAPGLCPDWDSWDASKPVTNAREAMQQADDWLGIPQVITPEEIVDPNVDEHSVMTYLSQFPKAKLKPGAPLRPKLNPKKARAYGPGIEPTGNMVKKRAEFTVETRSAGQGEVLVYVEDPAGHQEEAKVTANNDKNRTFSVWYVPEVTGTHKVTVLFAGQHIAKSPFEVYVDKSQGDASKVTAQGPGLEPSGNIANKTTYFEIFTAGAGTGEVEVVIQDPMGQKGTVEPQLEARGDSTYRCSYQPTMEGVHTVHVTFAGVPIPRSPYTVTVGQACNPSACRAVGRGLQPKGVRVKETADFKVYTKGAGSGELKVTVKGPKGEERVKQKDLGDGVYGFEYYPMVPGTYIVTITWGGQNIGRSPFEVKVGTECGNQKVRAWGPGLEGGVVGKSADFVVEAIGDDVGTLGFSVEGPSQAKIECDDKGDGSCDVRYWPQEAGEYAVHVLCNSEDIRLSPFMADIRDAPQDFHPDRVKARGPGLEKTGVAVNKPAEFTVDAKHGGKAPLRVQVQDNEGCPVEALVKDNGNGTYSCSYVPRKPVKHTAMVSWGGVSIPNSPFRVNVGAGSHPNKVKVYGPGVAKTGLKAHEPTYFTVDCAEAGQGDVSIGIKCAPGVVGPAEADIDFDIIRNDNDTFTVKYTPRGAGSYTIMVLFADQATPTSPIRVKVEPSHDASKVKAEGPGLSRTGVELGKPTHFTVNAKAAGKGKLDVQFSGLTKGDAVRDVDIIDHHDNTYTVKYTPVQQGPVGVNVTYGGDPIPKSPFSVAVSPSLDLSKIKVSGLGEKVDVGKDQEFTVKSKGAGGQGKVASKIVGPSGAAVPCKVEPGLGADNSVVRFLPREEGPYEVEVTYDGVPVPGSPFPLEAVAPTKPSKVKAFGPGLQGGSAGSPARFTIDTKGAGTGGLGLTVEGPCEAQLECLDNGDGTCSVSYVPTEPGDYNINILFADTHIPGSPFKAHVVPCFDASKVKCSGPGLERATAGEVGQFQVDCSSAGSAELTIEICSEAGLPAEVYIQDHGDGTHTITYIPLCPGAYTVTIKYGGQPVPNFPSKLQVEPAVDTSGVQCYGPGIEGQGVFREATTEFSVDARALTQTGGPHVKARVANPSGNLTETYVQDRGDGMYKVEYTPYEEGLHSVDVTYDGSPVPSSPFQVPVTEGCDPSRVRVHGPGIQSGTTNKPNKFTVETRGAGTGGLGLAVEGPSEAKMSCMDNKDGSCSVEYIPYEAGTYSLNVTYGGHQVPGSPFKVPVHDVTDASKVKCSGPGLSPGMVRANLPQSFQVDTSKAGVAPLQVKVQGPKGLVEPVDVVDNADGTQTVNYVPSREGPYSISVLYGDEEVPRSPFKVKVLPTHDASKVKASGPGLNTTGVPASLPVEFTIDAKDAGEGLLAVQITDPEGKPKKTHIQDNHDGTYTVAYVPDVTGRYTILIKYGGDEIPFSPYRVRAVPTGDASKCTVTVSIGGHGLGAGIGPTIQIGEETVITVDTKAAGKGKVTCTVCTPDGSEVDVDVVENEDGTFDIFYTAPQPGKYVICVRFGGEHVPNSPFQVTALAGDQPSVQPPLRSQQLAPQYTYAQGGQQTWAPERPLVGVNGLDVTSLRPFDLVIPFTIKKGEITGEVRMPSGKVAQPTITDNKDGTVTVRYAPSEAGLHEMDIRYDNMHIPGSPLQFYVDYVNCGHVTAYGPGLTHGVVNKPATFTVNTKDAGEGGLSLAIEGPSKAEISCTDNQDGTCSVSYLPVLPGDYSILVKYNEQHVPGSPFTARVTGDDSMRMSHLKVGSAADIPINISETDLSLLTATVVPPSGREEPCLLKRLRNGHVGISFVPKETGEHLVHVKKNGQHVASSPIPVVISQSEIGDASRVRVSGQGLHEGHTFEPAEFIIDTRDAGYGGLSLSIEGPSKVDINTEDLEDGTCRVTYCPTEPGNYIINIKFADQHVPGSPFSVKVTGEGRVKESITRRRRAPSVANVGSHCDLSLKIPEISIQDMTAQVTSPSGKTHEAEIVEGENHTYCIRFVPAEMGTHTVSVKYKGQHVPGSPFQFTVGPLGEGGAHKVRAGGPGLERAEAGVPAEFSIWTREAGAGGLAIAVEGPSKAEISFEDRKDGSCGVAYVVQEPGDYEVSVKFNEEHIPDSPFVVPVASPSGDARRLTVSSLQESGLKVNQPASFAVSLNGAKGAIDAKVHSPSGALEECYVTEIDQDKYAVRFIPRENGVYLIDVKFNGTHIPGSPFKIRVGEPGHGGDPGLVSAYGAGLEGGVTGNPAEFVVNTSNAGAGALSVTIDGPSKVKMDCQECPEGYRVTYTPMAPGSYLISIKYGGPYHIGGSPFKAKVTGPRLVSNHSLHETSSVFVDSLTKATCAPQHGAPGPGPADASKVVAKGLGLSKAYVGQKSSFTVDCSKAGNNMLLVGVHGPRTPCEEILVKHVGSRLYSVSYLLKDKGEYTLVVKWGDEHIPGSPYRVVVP
As to the kind of experiment: photo-crosslinking of biotin-PRO1-azide in hMSCs, competition with PRO1, proteomics. In kind it is binding. As to the method: To identify the interaction of PRO1 and FLNA, 5 μM biotin-PRO1-azide was added to hMSCs in the differentiation media in the absence or presence of a 50-fold molar excess of PRO1 and incubated for 30 min. 254-nm light was applied to the cells for another 30 min. Cells were lysed in lysis buffer (20 mM Tris-HCl, pH=7.4, 150 mM NaCl, 1 mM EDTA, 1 mM DTT, 0.5% v/v Triton X-100, protease inhibitor cocktail), passed through 26 1/2 gauge needles 20 times, and centrifuged at 12,000 rpm for 30 min. The supernatant was subjected to ammonium sulfate precipitation fractionation. Fractions were analyzed by Western blotting using an anti-biotin antibody (FIG. 6A). Fractions containing 20-40% ammonium sulfate were precipitated using trichloroacetic acid (TCA) and resuspended in isoelectric focusing sample buffer and subjected to 2D SDS-PAGE and Western blotting against biotin. Proteins specifically labeled by biotin-PRO1-azide were recognized, and the corresponding spots on a parallel gel visualized by silver staining were excised. These proteins were identified by mass spectrometry proteomics analysis. hMSCs were treated in monolayer or pellet culture (as indicated in FIG. 6B-6C) for 24-72 hrs. 15 μg of protein was separated by SDS-PAGE and hMSCs were fractionated (as indicated in FIG. 6B-6C) into cytosolic and nuclear fractions or monomeric and filamentous components as previously described.

In another data set the test system is C57BL/10 mice. As to the kind of experiment: collagenase VII-induced knee joint damage. It is filed as in vivo. The settings on record: 10 μM intra-articular on days 7 and 21. On the procedure:
IA injections of C57BL/10 mice with collagenase VII (12 U/knee) induced joint damage through digestion of the ligament of the knee. The mice were dosed intra-articularly on days 7 and 21 with 10 μM PRO1 or PBS. On day 56 the mice were euthanized for histopathological analyses. Parafin blocks were sectioned at 5 um and stained with Safranin O, and representative data was collected for the PBS- and PRO1-treated mice (FIG. 3A). The total medial tibial plateau joint score was determined by two blinded observers and averaged to represent the data shown here using the OARSI scoring system (FIG. 3B). Peripheral blood was collected from each mouse by retro-orbital bleeding on day 1, day 13 and day 56. The circulating COMP was determined by the Animal COMP ELISA kit according to the manufacturer's instructions (MDBioproducts, St Paul, Minn.). Pooled data, 10 mice/group (FIG. 3C).

For the next data set, the target named is T2, FLNA/PEBP2β (Homo sapiens, UniProt P21333).
T2 construct: endogenous in cells; host or cells: hMSCs (primary human mesenchymal stem cells)
In words: immunoprecipitation and Western blotting of FLNA/PEBP2β interaction in hMSCs. In kind it is cell-based. The conditions noted are these: 12 hr treatment. As to the method: hMSCs were treated with […] for 12 hr and lysed as above. 2 μg of anti-PEBP23 antibody was added to the cell lysate and incubated overnight at 4° C. prior to addition of agarose beads bearing immobilized protein A/G. After incubation of the lysate with the protein A/G beads for 1 hour, the beads were collected by centrifugation at 2,000 rpm and washed 3 times with lysis buffer. 30 μL of 2×SDS sample buffer was added to the beads and boiled for 5 min.
(A western blot detects proteins with antibodies after separation by electrophoresis.)

The subject of another data set is human chondrocytes. In words: proliferation of human chondrocytes. In kind it is cell-based.

For orientation: Tmax means the time from dosing to the highest level. Usually bioavailability stands for the share of a dose that reaches the circulation, judged against a reference dose that is usually intravenous. By AUC(0-inf) is commonly meant the area under the concentration-time curve extrapolated to infinity. The low end stands for low exposure, the high end for high exposure. What is called Cmax is the highest concentration seen after dosing. As a reminder, the half-life is how long it takes for the measured level to halve. A high value points to slow loss. A word on the EC50: it is the concentration at which the effect is half-maximal. High values mean a less potent agent, low ones a more potent agent. As for `O=C(O)c1ccccc1C(=O)Nc1ccc(-c2ccccc2)cc1` [AKT], the toxicity entry in the data set with HEK 293 cells is “No toxicity”. Also, the toxicity entry with synovial fibroblasts is on record as “No toxicity”. Further, the “Plasma Conc.” value in [1] was “BLQ”. For the same compound, in the data set “in vivo” (0.05 mg/kg), the time of peak concentration (Tmax) came out at 1 h and the bioavailability was ~22%. In addition, the AUC(0-inf) in “in vivo” (0.05 mg/kg, AUC0-inf) amounted to 0.342 µM·h. For the same compound, in “in vivo” (0.05 mg/kg, Cmax), the Cmax was ~100 nM. This compound also returned a concentration at 1 h in “in vivo” (0.05 mg/kg, Plasma Conc.) of 134 nM. In “in vivo” (0.05 mg/kg, T1/2), the half-life is ~2 h. In the data set “in vivo” (Plasma Conc.), the concentration at 1 h was found to be 102 nM, the concentration at 3 h is 33.6 nM and the concentration at 7 h was 11.8 nM. In the data set on hMSCs [2], the EC50 is 0.08 µM. Moreover, the “induction of chondrogenic differentiation of hMSCs” value in the data set with hMSCs [2] (compared with known inducers TGFβ3, BMP7 or BMP2, FIG. 2B) is “more potent and efficient”. In the data set on hMSCs [3], the toxicity entry was “No toxicity”. Further, the “interaction with FLNA” value at FLNA was “Interacts with FLNA”. Also, the “circulating COMP levels” value in the data set with C57BL/10 mice (ELISA) is “Reduced”. Also, in the data set on C57BL/10 mice (day 56), the cartilage damage result is reported as “Reduced Cartilage Damage”. At FLNA/PEBP2β, the “protein interactions between FLNA and PEBP2β” value was “Inhibits the Protein Interactions”. Moreover, the proliferative advantage with human chondrocytes is < 1.5 fold.

The record behind these values is US10166237B2, “Compounds and methods for inducing chondrogenesis” (The Scripps Research Institute, priority 2011, dated 2019).
